{"source": "the OPERA property sets (Mansouri et al. 2018)", "data": [{"conditions": "not given", "units": {"melting point": "°C", "boiling point": "°C"}, "values": [{"smiles": "Cc1ccc(S(=O)(=O)NC(=O)NC2CCCCC2)cc1", "melting point": 175}, {"smiles": "CC1=CCC2CC1C2(C)C", "note": "(configuration not stated)", "log10 Henry constant (atm·m³/mol)": -0.873, "log10 vapour pressure (mmHg)": 0.677, "ready biodegradability": "readily biodegradable"}, {"smiles": "CC=CC=CCO", "melting point": 30.5}, {"smiles": "C=C(C)C(=O)OCCOCCOCCOCCOC(=O)C(=C)C", "boiling point": 220}, {"smiles": "CC(C)[N+](=O)[O-]", "boiling point": 120, "log10 vapour pressure (mmHg)": 1.24, "melting point": -91.3}, {"smiles": "Cc1ccc2cnccc2c1", "boiling point": 266, "melting point": 85.5}, {"smiles": "C=CC(=O)O[C@@H]1C[C@H]2CC[C@]1(C)C2(C)C", "melting point": 97}, {"smiles": "Cc1ccc(O)c(Cl)c1C", "boiling point": 188, "melting point": 27}, {"smiles": "COCc1ccco1", "boiling point": 132}, {"smiles": "CCCC(C)=O", "boiling point": 102, "log10 Henry constant (atm·m³/mol)": -4.08, "log10 Koa": 3.19, "log10 vapour pressure (mmHg)": 1.55, "melting point": -76.9}, {"smiles": "Cc1ccc2cccnc2c1", "boiling point": 258, "log10 vapour pressure (mmHg)": -2.05, "melting point": 39}, {"smiles": "CCCCC1CCCC1", "boiling point": 157, "log10 vapour pressure (mmHg)": 0.602, "melting point": -108}, {"smiles": "Clc1nnnn1-c1ccccc1", "melting point": 123}, {"smiles": "CCC(C)(O)CC", "boiling point": 122, "log10 vapour pressure (mmHg)": 0.745, "melting point": -23.6}, {"smiles": "CCCCCCCCCCCCCCCCCCCBr", "log10 vapour pressure (mmHg)": -5.65}, {"smiles": "Cc1ccc2[nH]nnc2c1", "melting point": 81}, {"smiles": "CCOC(=O)c1ccccc1", "boiling point": 212, "log10 Koc (L/kg)": 2.3, "log10 vapour pressure (mmHg)": -0.574, "melting point": -34}, {"smiles": "Clc1cc2ccccc2c(Cl)c1Cl", "log10 Koa": 7.66, "log10 vapour pressure (mmHg)": -4.7}, {"smiles": "Clc1ccccc1-c1ccc(Cl)c(Cl)c1Cl", "log10 Henry constant (atm·m³/mol)": -3.85}, {"smiles": "Nc1cnc2ccccc2c1", "log10 vapour pressure (mmHg)": -4.54, "melting point": 91.5}, {"smiles": "O=C(O)CCCOc1ccc(Cl)cc1Cl", "boiling point": 324, "melting point": 118}, {"smiles": "O=C(O)CNC(=S)C(=S)NCC(=O)O", "melting point": 220}, {"smiles": "OCC(F)(F)C(F)(F)C(F)(F)C(F)F", "boiling point": 140}, {"smiles": "CN(C)c1ccccc1", "boiling point": 193, "log10 Koc (L/kg)": 2.26, "log10 vapour pressure (mmHg)": -0.155, "melting point": 2.5, "ready biodegradability": "not readily biodegradable"}, {"smiles": "ClC1CCCCC1", "boiling point": 142, "log10 vapour pressure (mmHg)": 0.828, "melting point": -44, "ready biodegradability": "not readily biodegradable"}, {"smiles": "CCC[C@@H](C)S", "boiling point": 113, "melting point": -169}, {"smiles": "Clc1cc2cccc(Cl)c2c(Cl)c1Cl", "log10 Koa": 8.65}, {"smiles": "CC(=O)Nc1ccc(S(=O)(=O)Cl)cc1", "melting point": 149}, {"smiles": "N#CCc1ccccc1F", "boiling point": 232}, {"smiles": "c1ccc2c(c1)-c1ccc3ccc4cccc5cc-2c1c3c45", "boiling point": 536, "log10 Henry constant (atm·m³/mol)": -6.46, "log10 Koc (L/kg)": 6.2, "log10 biodegradation half-life (days)": 2.52, "melting point": 164}, {"smiles": "Cc1ccc(Cc2ccc(C)cc2)cc1", "boiling point": 286, "melting point": 28}, {"smiles": "CCNc1nc(NC(C)C)nc(OC)n1", "log10 Koc (L/kg)": 2.64, "log10 vapour pressure (mmHg)": -5.54}, {"smiles": "Oc1ccccc1C=NCCN=Cc1ccccc1O", "melting point": 128}, {"smiles": "O=C(O)CCC(=O)c1ccc(C2CCCCC2)c(Cl)c1", "melting point": 163}, {"smiles": "CCCOC(=O)c1cc(O)c(O)c(O)c1", "melting point": 130}, {"smiles": "CCOC(=O)C(CC)(CC)C(=O)OCC", "boiling point": 230}, {"smiles": "Cc1ccc(N)cc1Cl", "boiling point": 243, "melting point": 26}, {"smiles": "O=C(O)CCC(=O)O", "log10 vapour pressure (mmHg)": -6.72, "melting point": 188, "ready biodegradability": "readily biodegradable"}, {"smiles": "Fc1cc2c(cc1F)Oc1cc(Cl)c(Cl)cc1O2", "log10 vapour pressure (mmHg)": -7.76, "melting point": 223}, {"smiles": "Oc1ccc(Br)c2cccnc12", "melting point": 124}, {"smiles": "C#CCOC(=O)/C=C(C)/C=C/CC(C)CCCC(C)C", "note": "(configuration not stated)", "log10 vapour pressure (mmHg)": -5.14}, {"smiles": "CCCCN(CCCC)c1ccccc1", "boiling point": 275, "melting point": -32.2}, {"smiles": "CC(C)CI", "boiling point": 121, "log10 vapour pressure (mmHg)": 1.19, "melting point": -93}, {"smiles": "CN(C)C(=O)Nc1ccccc1", "log10 Koc (L/kg)": 1.4, "log10 vapour pressure (mmHg)": -4.43, "melting point": 134, "ready biodegradability": "readily biodegradable"}, {"smiles": "Cc1cccc(Oc2ccccc2)c1", "boiling point": 272, "ready biodegradability": "not readily biodegradable"}, {"smiles": "CC1(C)[C@@H]2CC[C@@](C)(C2)[C@@H]1O", "melting point": 45.8}, {"smiles": "C=Cc1ccccc1C", "boiling point": 170, "log10 vapour pressure (mmHg)": 0.268, "melting point": -68.5}, {"smiles": "O=C(CCl)OC(=O)CCl", "boiling point": 203, "log10 vapour pressure (mmHg)": -1.43, "melting point": 46}, {"smiles": "c1ccc(-c2noc(-c3ccccc3)n2)cc1", "boiling point": 290, "melting point": 109}, {"smiles": "CCOP(=O)(N=C1SCS1)OCC", "log10 vapour pressure (mmHg)": -5.19}, {"smiles": "COc1ccc(C)cc1N", "boiling point": 235, "melting point": 53, "ready biodegradability": "not readily biodegradable"}, {"smiles": "CC(Cl)CO", "note": "(configuration not stated)", "boiling point": 134, "log10 vapour pressure (mmHg)": 0.72}, {"smiles": "CN(C)CCCN", "boiling point": 133, "log10 vapour pressure (mmHg)": 1, "melting point": -60}, {"smiles": "FC(F)(F)CC(F)(F)F", "boiling point": -1.1, "melting point": -94.2}, {"smiles": "Cc1nc([N+](=O)[O-])cn1-c1ccc([N+](=O)[O-])cc1", "melting point": 186}, {"smiles": "Cc1ccc(C)c2c1C(=O)c1ccccc1C2=O", "melting point": 140}, {"smiles": "CC(C)C(=O)O", "boiling point": 154, "log10 Henry constant (atm·m³/mol)": -6.05, "log10 vapour pressure (mmHg)": 0.258, "melting point": -46, "ready biodegradability": "readily biodegradable"}, {"smiles": "COc1c(O)cc(Cl)c(Cl)c1Cl", "log10 Koc (L/kg)": 2.8, "log10 vapour pressure (mmHg)": -3.05, "ready biodegradability": "not readily biodegradable"}, {"smiles": "O=C(O)CCCCCCCCCF", "melting point": 49}, {"smiles": "Clc1cccc(-c2cc(Cl)c(Cl)cc2Cl)c1", "log10 Henry constant (atm·m³/mol)": -4}, {"smiles": "CCCCNS(=O)(=O)c1ccccc1", "boiling point": 314, "ready biodegradability": "not readily biodegradable"}, {"smiles": "CCCCCCCCCCCCCCCCCC(=O)OC[C@@H](O)[C@H]1OC[C@H](O)[C@H]1O", "melting point": 57}, {"smiles": "FC(F)C(F)(F)C(F)Cl", "note": "(configuration not stated)", "boiling point": 28.1, "melting point": 85}, {"smiles": "CCCC(C)CC(C)C", "note": "(configuration not stated)", "boiling point": 133, "log10 biodegradation half-life (days)": 0.778}, {"smiles": "Cc1ncc(CO)c(C=O)c1O.Cl", "melting point": 165}, {"smiles": "CC(=O)OCCN(C)C", "boiling point": 152}, {"smiles": "Nc1cccc(C(F)(F)F)c1", "boiling point": 187, "log10 Koc (L/kg)": 2.36, "melting point": 5.5}, {"smiles": "Cc1ccc(Cl)c(Nc2ccccc2C(=O)O)c1Cl", "melting point": 257}, {"smiles": "O=[N+]([O-])OCC(CO[N+](=O)[O-])O[N+](=O)[O-]", "boiling point": 250, "log10 vapour pressure (mmHg)": -3.4, "melting point": 13.5}, {"smiles": "CC(C)(C)C#N", "boiling point": 106, "log10 vapour pressure (mmHg)": 1.54, "melting point": 15}, {"smiles": "CCCCCCCC/C=C\\CCCCCCCC(=O)OCC(COC(=O)CCCCCCC/C=C\\CCCCCCCC)OC(=O)CCCCCCC/C=C\\CCCCCCCC", "ready biodegradability": "readily biodegradable"}, {"smiles": "COC(=O)C1(S(=O)(=O)c2ccc(Br)cc2)CCCCC1", "melting point": 112}, {"smiles": "O=C(Oc1ccccc1)Oc1ccccc1", "boiling point": 306, "log10 vapour pressure (mmHg)": -3.82, "melting point": 83}, {"smiles": "COCCOC1=C(N2CC2)C(=O)C(OCCOC)=C(N2CC2)C1=O", "melting point": 80}, {"smiles": "CCCOC(=O)Nc1ccccc1", "log10 Koc (L/kg)": 2.06}, {"smiles": "C[C@]12CC[C@@H]3c4ccc(O)cc4CC[C@H]3[C@@H]1CC[C@@H]2O", "melting point": 200}, {"smiles": "CCC(C)(O)CC(C)C", "note": "(configuration not stated)", "boiling point": 152}, {"smiles": "CC(=O)OCCO", "boiling point": 188}, {"smiles": "c1ccc2c(c1)CCc1ccccc1N2", "melting point": 106}, {"smiles": "OC1CCCC1C1CCCC1", "note": "(configuration not stated)", "boiling point": 236, "melting point": 20}, {"smiles": "CCCCCCn1c(=O)c2c(ncn2C)n(C)c1=O", "melting point": 82.5}, {"smiles": "CN(C(=O)CN(CCO)CC(=O)N(C)C(C)(C)Cc1ccccc1)C(C)(C)Cc1ccccc1", "melting point": 104}, {"smiles": "CC(=O)[C@H]1CC[C@H]2[C@@H]3CC[C@@H]4CC(=O)CC[C@]4(C)[C@H]3CC[C@]12C", "melting point": 123}, {"smiles": "CC(C)OC(=O)C(O)(c1ccc(Br)cc1)c1ccc(Br)cc1", "log10 vapour pressure (mmHg)": -7.09, "melting point": 77}, {"smiles": "ClCC(Cl)(Cl)CCl", "boiling point": 165, "log10 vapour pressure (mmHg)": 0.484, "ready biodegradability": "not readily biodegradable"}, {"smiles": "Clc1cccc(C(Cl)(Cl)Cl)n1", "log10 Koc (L/kg)": 2.62, "log10 vapour pressure (mmHg)": -2.32, "melting point": 63}, {"smiles": "CCCCCO[N+](=O)[O-]", "boiling point": 157, "log10 Henry constant (atm·m³/mol)": -2.78, "log10 vapour pressure (mmHg)": 0.705}, {"smiles": "O=C(CCl)c1ccccc1", "boiling point": 247, "log10 vapour pressure (mmHg)": -2.27, "melting point": 56.5}, {"smiles": "O=C1CCCCCCCCCC1", "log10 vapour pressure (mmHg)": -1.31}, {"smiles": "O=C(O)C=Cc1ccccc1", "ready biodegradability": "readily biodegradable"}, {"smiles": "N[C@@H](CC(=O)O)C(=O)O", "ready biodegradability": "readily biodegradable"}, {"smiles": "CC1CCC1", "boiling point": 36.3, "log10 vapour pressure (mmHg)": 3.17, "melting point": -162}, {"smiles": "CC(Cl)c1ccccc1", "note": "(configuration not stated)", "log10 vapour pressure (mmHg)": -0.187}, {"smiles": "N=CN", "melting point": 81}, {"smiles": "CC(=O)Nc1ccc(C=O)cc1", "melting point": 157}, {"smiles": "CO[SiH](OC)OC", "boiling point": 81, "log10 vapour pressure (mmHg)": 1.88, "melting point": -115}]}, {"conditions": "fish", "values": [{"smiles": "CC(C)[N+](=O)[O-]", "log10 BCF": 0.92, "log10 biotransformation half-life (days)": -1.2}, {"smiles": "CN(C)c1ccccc1", "log10 BCF": 0.9, "log10 biotransformation half-life (days)": -0.96}, {"smiles": "ClC1CCCCC1", "log10 BCF": 2.34, "log10 biotransformation half-life (days)": 0.41}, {"smiles": "COc1ccc(C)cc1N", "log10 BCF": 0.55, "log10 biotransformation half-life (days)": -1}, {"smiles": "COc1c(O)cc(Cl)c(Cl)c1Cl", "log10 BCF": 2.41, "log10 biotransformation half-life (days)": 0.11}, {"smiles": "ClCC(Cl)(Cl)CCl", "log10 BCF": 1.57, "log10 biotransformation half-life (days)": -0.28}]}]}
